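Exposure lasted 48 hours, with cells grown in 96-well plates and compounds tested at five concentrations. Here, GI50 denotes the concentration required for 50% inhibition of growth. TGI: total growth inhibition.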
Columns and labels:
Experiment in all cases: growth of human tumour cells (NCI), 48 h
[1] = system: NCI-H460 lung
[2] = system: IGROV1 ovarian
[3] = system: TK-10 renal
[4] = system: SNB-75 CNS
[5] = system: A549 NSCLC
[6] = system: UACC-62 melanoma
[7] = system: RPMI-8226 leukemia
[8] = system: KM12 colon
[9] = system: NCI-H23 lung
[10] = system: 786-0 renal

Row | SMILES | GI50 [1] [µM] | TGI [1] [µM] | GI50 [2] [µM] | TGI [2] [µM] | GI50 [3] [µM] | TGI [3] [µM] | GI50 [4] [µM] | TGI [4] [µM] | GI50 [5] [µM] | TGI [5] [µM] | GI50 [6] [µM] | TGI [6] [µM] | GI50 [7] [µM] | TGI [7] [µM] | GI50 [8] [µM] | TGI [8] [µM] | GI50 [9] [µM] | TGI [9] [µM] | GI50 [10] [µM] | TGI [10] [µM]
1 | [Cl-].[Dy+3].[O-]/N=C(\c1ccccc1)c1ccccn1.[O-]/N=C(\c1ccccc1)c1ccccn1.[O-]/N=C(\c1ccccc1)c1ccccn1 | 28.8 | > 100 | 33.1 | > 100 | 46.3 | > 100 | 3.54 | 22.1 | 32.2 | > 100 | 32.5 | > 100 | 45.1 | > 100 | 55.3 | > 100 | 37.2 | > 100 | 32.2 | 96.6
2 | O=C1C2c3[nH]c4ccccc4c3C3CCCCCCC3C2C(=O)N1c1ccccc1 (stereo not given) |  | 18.6 |  |  |  | 27 |  | 5.33 |  | 24.9 |  | > 100 |  | 68.3 |  | > 100 |  | 70.2 |  | 26.5
3 | CC(C)(C)C1C=C(Sc2ccccc2)C(=O)O1 (stereo not given) |  | > 100 |  | > 100 |  | > 100 |  | 83.8 |  | > 100 |  | > 100 |  | > 100 |  | > 100 |  | > 100 |  | > 100
4 | COC(=O)/C(=N/NC(=O)C[N+](C)(C)C)C(C(=O)OC)C(=O)C(=O)Nc1ccc(F)cc1 (stereo not given) |  | > 100 |  | > 100 |  | > 100 |  | > 100 |  | > 100 |  | > 100 |  | > 100 |  | > 100 |  | > 100 |  | > 100
5 | COc1ccc(NC2=CC(=O)C(=O)c3ccccc32)nn1 |  | 3.49 |  | 11.1 |  | 9.92 |  |  |  | 31.2 |  | 3.01 |  | 5.34 |  | 1.62 |  | 6.2 |  | 3.76
6 | CC1=CC(=Nc2ccc(N(CCCl)CCCl)cc2)C=C(C)C1=O | 0.181 | 1.96 |  |  | 1.94 | 5.55 | 1 | 7.87 | 1.61 | 24 | 1.12 | 6.47 | 1.14 | 9.29 | 2.64 | 11.3 | 0.768 | 4.36 | 0.457 | 2.39
7 | C/C(CC(=O)Nc1ccc(C)cc1C)=N/N=C(N)N |  | > 100 |  | > 100 |  | > 100 |  | > 100 |  | > 100 |  | > 100 |  | > 100 |  | > 100 |  | > 100 |  | > 100
8 | COC(=O)c1c/c(=N\NC(=O)CC(=O)Nc2ccccc2OC)c2ccccc2o1 |  | > 100 |  | > 100 |  | > 100 |  | > 100 |  | > 100 |  | > 100 |  | > 100 |  | > 100 |  | > 100 |  | > 100
9 | COc1ccc(-c2cc(=O)c3c(OC)c(OC)c(OC)cc3o2)cc1 |  | 81.4 |  | > 100 |  | > 100 |  | > 100 |  | 85.9 |  | > 100 |  | > 100 |  |  |  | > 100 |  | > 100
10 | COC12C=C(C)C(CC1)CC2C(=O)O (stereo not given) |  | > 100 |  | > 100 |  | > 100 |  | > 100 |  | > 100 |  | > 100 |  | > 100 |  | > 100 |  | > 100 |  | > 100
11 | Cc1cc2c(cc1C)[n+](=O)c(C(=O)C/C(=N/NC(=O)CC#N)C(=O)Nc1ccccc1C(F)(F)F)c(C)n2[O-] |  | > 100 |  | > 100 |  | > 100 |  | > 100 |  | > 100 |  | > 100 |  |  |  | > 100 |  | > 100 |  | > 100
12 | Cc1cccc(C)c1NC(=O)C(=O)C1C(=O)NC(=O)NC1=O |  | > 100 |  | > 100 |  | > 100 |  |  |  | > 100 |  | > 100 |  | > 100 |  | > 100 |  | > 100 |  | > 100
13 | CCC(C)c1c(Cl)nc(Cl)nc1Cl (stereo not given) |  | 34.2 |  | 34.5 |  | 41.3 |  | 26.8 |  |  |  | 52.8 |  | > 100 |  | 10.6 |  | 15.5 |  | 30
14 | COC(=O)/C=C/c1cc(OC)c(OC)c(OC)c1 |  | > 100 |  | > 100 |  | > 100 |  | > 100 |  | > 100 |  | > 100 |  |  |  | > 100 |  | > 100 |  | > 100
15 | NC(CCC(=O)NC(CSSCCCCS(=O)O)C(=O)NCC(=O)O)C(=O)O (stereo not given) |  | > 100 |  | > 100 |  | > 100 |  | > 100 |  | > 100 |  | > 100 |  |  |  | > 100 |  | > 100 |  | > 100

Source: PubChem BioAssay (NCI)
